In patent US11666050B2, “Enhancing the antimicrobial activity of biocides with polymers” (BASF SE, priority 2012, dated 2023):

Tests used:
Assay type in all cases: cell-based
[1] = tested on: Pseudomonas aeruginosa ATCC 15442; assay: Bactericidal activity, method EN1040 (Example 1, Table 1); settings: biocide alone; for log redn. after contact time 1 hr: contact time 1 hr; for log redn. after contact time 3 hrs: contact time 3 hrs; for log redn. after contact time 6 hrs: contact time 6 hrs; for log redn. after contact time 24 hrs: contact time 24 hrs
From the text: (§1) Lines in grey shading indicate control sample (no PEI or no biocide added): […]

[2] = tested on: Staphylococcus aureus ATCC 6538; assay: Bactericidal activity, method EN1040 (Example 1, Table 2); settings: biocide alone; for log redn. after contact time 1 hr: contact time 1 hr; for log redn. after contact time 3 hrs: contact time 3 hrs; for log redn. after contact time 6 hrs: contact time 6 hrs; for log redn. after contact time 24 hrs: contact time 24 hrs
From the text: as §1

[3] = tested on: Staphylococcus aureus ATCC 6538; assay: Bactericidal activity, method EN1276 (Example 1, Table 3); settings: biocide 250 ppm a.i., no PEI (control), S. aureus ATCC 6538
From the text: as §1

O=[N+]([O-])C(Br)(CO)CO [Bronopol, 2-Bromo-2-nitropropane-1,3-diol]
log redn. after contact time 1 hr ([1]; 0.1% a.i.): <1 log
log redn. after contact time 3 hrs ([1]; 0.1% a.i.): <1 log
log redn. after contact time 6 hrs ([1]; 0.1% a.i.): 4.2 log
log redn. after contact time 24 hrs ([1]; 0.1% a.i.): 2.4 log
log redn. after contact time 1 hr ([2]; 0.1% a.i.): <1 log
log redn. after contact time 3 hrs ([2]; 0.1% a.i.): <1 log
log redn. after contact time 6 hrs ([2]; 0.1% a.i.): <1 log
log redn. after contact time 24 hrs ([2]; 0.1% a.i.): 2.4 log

Oc1cc(Cl)ccc1Oc1ccc(Cl)cc1 [Tinosan® HP 100, Hydroxydichlorodiphenyl Ether]
log redn. after Contact time 5 min [3]: 4.9 log redn.

OCCOc1ccccc1 [phenoxyethanol, 2-Phenoxyethanol]
log redn. after contact time 1 hr ([1]; 1% a.i.): <1 log
log redn. after contact time 3 hrs ([1]; 1% a.i.): 1.3 log
log redn. after contact time 6 hrs ([1]; 1% a.i.): 2.8 log
log redn. after contact time 24 hrs ([1]; 1% a.i.): >6 log
log redn. after contact time 1 hr ([2]; 1% a.i.): <1 log
log redn. after contact time 3 hrs ([2]; 1% a.i.): <1 log
log redn. after contact time 6 hrs ([2]; 1% a.i.): <1 log
log redn. after contact time 24 hrs ([2]; 1% a.i.): 1.1 log
